# Reference: US6737383B1, “Herbicidal oxadiazolidines” (priority 1999, dated 2004)
# Experiments:
# [1] = system: bedstraw; assay: Test B pre/postemergence bedstraw; format: in vivo, Galium aparine
# In short: (§1)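 Response is a visual 0-to-10 score relative to untreated plants, where 0 means no effect and 10 means complete control, taken twelve to sixteen days after application. Treatments went onto soil at planting and onto foliage of 1- to 4-leaf plants, using a surfactant-containing non-phytotoxic solvent.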
# [2] = system: surinam grass; assay: Test B pre/postemergence surinam grass; format: in vivo, Brachiaria decumbens
# In short: as §1
# [3] = system: cocklebur; assay: Test B pre/postemergence cocklebur; format: in vivo, Xanthium strumarium
# In short: as §1
# [4] = system: corn; assay: Test B pre/postemergence corn; format: in vivo, Zea mays
# In short: as §1
# [5] = system: giant foxtail; assay: Test B pre/postemergence giant foxtail; format: in vivo, Setaria faberii
# In short: as §1
# [6] = system: pigweed; assay: Test B pre/postemergence pigweed; format: in vivo, Amaranthus retroflexus
# In short: as §1
# [7] = system: rape; assay: Test B pre/postemergence rape; format: in vivo, Brassica napus
# In short: as §1
# [8] = system: soybean; assay: Test B pre/postemergence soybean; format: in vivo, Glycine max
# In short: as §1
# [9] = system: sugar beet; assay: Test B pre/postemergence sugar beet; format: in vivo, Beta vulgaris
# In short: as §1
# [10] = system: velvetleaf; assay: Test B pre/postemergence velvetleaf; format: in vivo, Abutilon theophrasti
# In short: as §1
# [11] = system: wheat; assay: Test B pre/postemergence wheat; format: in vivo, Triticum aestivum
# In short: as §1
# [12] = system: wild oat; assay: Test B pre/postemergence wild oat; format: in vivo, Avena fatua
# In short: as §1
# [13] = system: purple nutsedge; assay: Test B pre/postemergence purple nutsedge; format: in vivo, Cyperus rotundus; settings: Postemergence
# In short: as §1
# [14] = system: rice; assay: Test B flood test rice; format: in vivo, Oryza sativa
# In short: (§2)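 Read-out is a visual response score from 0 (no effect) to 10 (complete control), assigned by comparison with untreated controls. Treatment was applied at the 2-leaf stage, and plants stayed in the greenhouse for twelve to sixteen days before scoring.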
# [15] = system: smallflower flatsedge; assay: Test B flood test smallflower flatsedge; format: in vivo, Cyperus difformis
# In short: as §2
# [16] = system: duck salad; assay: Test B flood test duck salad; format: in vivo, Heteranthera limosa
# In short: as §2
# [17] = Postemergence, Rate 250 g/ha, scale 0 to 10, 0 no effect, 10 complete control
# [18] = Postemergence, Rate 1000 g/ha, scale 0 to 10 (0 no effect, 10 complete control)
# [19] = Preemergence, Rate 125 g/ha, scale 0 to 10 (0 no effect, 10 complete control)
# [20] = Preemergence, Rate 250 g/ha, scale of 0 to 10 where 0 is no effect and 10 is complete control
# [21] = Preemergence, Rate 500 g/ha, scale 0 (no effect) to 10 (complete control)
# [22] = Rate 125 g/ha, Postemergence, scale 0 to 10, 0 no effect, 10 complete control
# [23] = Rate 500 g/ha, Postemergence, 0 to 10 scale (0 no effect, 10 complete control)
# [24] = Rate 1000 g/ha, Preemergence, scale 0 to 10 (0 no effect, 10 complete control)
# [25] = Rate 125 g/ha, Postemergence section (flood test species), scale 0 to 10, 0 no effect, 10 complete control
# [26] = Rate 500 g/ha, Postemergence section of Table B, 0 to 10 scale (0 no effect, 10 complete control)
# [27] = flood test, listed under Postemergence, Rate 250 g/ha, scale 0 to 10, 0 no effect, 10 complete control
compound,measurement,setting,value
CCN(CC)C(=O)n1oc(=O)n(-c2ccc(OC)cc2)c1=O [Compound 1],Bedstraw plant response rating,[1]; [17],0
same,Bedstraw plant response rating,[1]; [18],0
same,"Plant response rating, Bedstraw",[1]; [19],0
same,"Plant response rating, Bedstraw",[1]; [20],0
same,Bedstraw plant response rating,[1]; [21],0
same,Bedstraw plant response rating,[1]; [22],0
same,Bedstraw plant response rating,[1]; [23],0
same,"Plant response rating, Bedstraw",[1]; [24],0
same,B. signalgrass plant response rating,[2]; [17],7
same,B. signalgrass plant response rating,[2]; [18],6
same,"Plant response rating, B. signalgrass",[2]; [19],0
same,"Plant response rating, B. signalgrass",[2]; [20],0
same,B. signalgrass plant response rating,[2]; [21],6
same,B. signalgrass plant response rating,[2]; [22],0
same,B. signalgrass plant response rating,[2]; [23],7
same,"Plant response rating, B. signalgrass",[2]; [24],8
same,Cocklebur plant response rating,[3]; [17],0
same,Cocklebur plant response rating,[3]; [18],0
same,"Plant response rating, Cocklebur",[3]; [19],0
same,"Plant response rating, Cocklebur",[3]; [20],0
same,Cocklebur plant response rating,[3]; [21],0
same,Cocklebur plant response rating,[3]; [22],0
same,Cocklebur plant response rating,[3]; [23],0
same,Corn plant response rating,[4]; [17],0
same,Corn plant response rating,[4]; [18],0
same,"Plant response rating, Corn",[4]; [19],0
same,"Plant response rating, Corn",[4]; [20],0
same,Corn plant response rating,[4]; [21],5
same,Corn plant response rating,[4]; [22],0
same,Corn plant response rating,[4]; [23],0
same,"Plant response rating, Corn",[4]; [24],7
same,Giant foxtail plant response rating,[5]; [17],2
same,Giant foxtail plant response rating,[5]; [18],8
same,"Plant response rating, Giant foxtail",[5]; [19],7
same,"Plant response rating, Giant foxtail",[5]; [20],8
same,Giant foxtail plant response rating,[5]; [21],9
same,Giant foxtail plant response rating,[5]; [22],0
same,Giant foxtail plant response rating,[5]; [23],8
same,"Plant response rating, Giant foxtail",[5]; [24],9
same,Redroot pigweed plant response rating,[6]; [17],4
same,Redroot pigweed plant response rating,[6]; [18],9
same,"Plant response rating, Redroot pigweed",[6]; [19],0
same,"Plant response rating, Redroot pigweed",[6]; [20],0
same,Redroot pigweed plant response rating,[6]; [21],2
same,Redroot pigweed plant response rating,[6]; [22],2
same,Redroot pigweed plant response rating,[6]; [23],8
same,"Plant response rating, Redroot pigweed",[6]; [24],2
same,Rape plant response rating,[7]; [17],0
same,Rape plant response rating,[7]; [18],4
same,"Plant response rating, Rape",[7]; [19],0
same,"Plant response rating, Rape",[7]; [20],0
same,Rape plant response rating,[7]; [21],0
same,Rape plant response rating,[7]; [22],0
same,Rape plant response rating,[7]; [23],2
same,"Plant response rating, Rape",[7]; [24],0
same,Soybean plant response rating,[8]; [17],0
same,Soybean plant response rating,[8]; [18],2
same,"Plant response rating, Soybean",[8]; [19],0
same,"Plant response rating, Soybean",[8]; [20],0
same,Soybean plant response rating,[8]; [21],0
same,Soybean plant response rating,[8]; [22],0
same,"Plant response rating, Soybean",[8]; [24],0
same,Sugarbeets plant response rating,[9]; [17],0
same,Sugarbeets plant response rating,[9]; [18],5
same,"Plant response rating, Sugarbeets",[9]; [19],0
same,"Plant response rating, Sugarbeets",[9]; [20],0
same,Sugarbeets plant response rating,[9]; [21],0
same,Sugarbeets plant response rating,[9]; [22],0
same,"Plant response rating, Sugarbeets",[9]; [24],0
same,Velvetleaf plant response rating,[10]; [17],0
same,Velvetleaf plant response rating,[10]; [18],0
same,"Plant response rating, Velvetleaf",[10]; [19],0
same,"Plant response rating, Velvetleaf",[10]; [20],0
same,Velvetleaf plant response rating,[10]; [21],0
same,Velvetleaf plant response rating,[10]; [22],0
same,"Plant response rating, Velvetleaf",[10]; [24],3
same,Wheat plant response rating,[11]; [17],0
same,Wheat plant response rating,[11]; [18],0
same,"Plant response rating, Wheat",[11]; [19],0
same,"Plant response rating, Wheat",[11]; [20],0
same,Wheat plant response rating,[11]; [21],0
same,Wheat plant response rating,[11]; [22],0
same,"Plant response rating, Wheat",[11]; [24],0
same,Wild oats plant response rating,[12]; [17],0
same,Wild oats plant response rating,[12]; [18],0
same,"Plant response rating, Wild oats",[12]; [19],0
same,"Plant response rating, Wild oats",[12]; [20],0
same,Wild oats plant response rating,[12]; [21],0
same,Wild oats plant response rating,[12]; [22],0
same,"Plant response rating, Wild oats",[12]; [24],2
same,Nutsedge plant response rating,"[13]; Rate 250 g/ha, scale 0 to 10, 0 no effect, 10 complete control",0
same,Nutsedge plant response rating,"[13]; Rate 1000 g/ha, scale 0 to 10 (0 no effect, 10 complete control)",0
same,Nutsedge plant response rating,"[13]; Rate 125 g/ha, scale 0 to 10, 0 no effect, 10 complete control",0
same,Nutsedge plant response rating,"[13]; Rate 500 g/ha, 0 to 10 scale (0 no effect, 10 complete control)",0
same,Rice plant response rating,[14]; [18],0
same,Rice plant response rating,[14]; [25],0
same,Rice plant response rating,[14]; [26],0
same,Rice plant response rating,[14]; [27],0
same,S. Flatsedge plant response rating,[15]; [18],0
same,S. Flatsedge plant response rating,[15]; [25],0
same,S. Flatsedge plant response rating,[15]; [27],0
same,Ducksalad plant response rating,[16]; [18],0
same,Ducksalad plant response rating,[16]; [25],0
same,Ducksalad plant response rating,[16]; [26],0
same,Ducksalad plant response rating,[16]; [27],0
